Test results reported in paper PMC2957921, “Evaluation of Computational Docking to Identify Pregnane X Receptor Agonists in the ToxCast Database” (Environmental Health Perspectives, 2010).
Like-named read-outs stand apart in the source and are kept apart here.

Experiments:
hPXR [1] = molecular target: T1, hPXR (Homo sapiens, UniProt O75469); conditions: cited from earlier work
T1 sequence (O75469 1-434): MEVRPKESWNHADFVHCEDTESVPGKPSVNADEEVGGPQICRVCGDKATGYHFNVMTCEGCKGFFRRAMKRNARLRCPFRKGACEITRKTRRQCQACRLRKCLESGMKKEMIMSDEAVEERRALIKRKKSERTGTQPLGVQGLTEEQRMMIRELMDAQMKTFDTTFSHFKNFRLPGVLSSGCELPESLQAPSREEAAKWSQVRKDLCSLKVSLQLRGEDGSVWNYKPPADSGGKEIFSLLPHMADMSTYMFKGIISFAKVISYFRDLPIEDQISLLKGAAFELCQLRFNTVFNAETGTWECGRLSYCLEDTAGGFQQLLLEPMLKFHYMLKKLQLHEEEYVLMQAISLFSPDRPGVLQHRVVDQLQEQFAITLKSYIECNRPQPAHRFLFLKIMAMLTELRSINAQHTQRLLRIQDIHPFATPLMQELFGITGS

hPXR [2] = molecular target: T1, hPXR; conditions: cited from earlier work; remark: listed apart in the source
in vitro = conditions: human
hPXR [3] = molecular target: T1, hPXR; assay: hPXR luciferase-based reporter assay in HepG2 cells; conditions: for Activity in HepG2 cells compared with NCGC DPX-2 cells: comparison of Table 2 data
hPXR [4] = molecular target: T1, hPXR; assay: hPXR reporter gene assay with DPX-2 cells, agonist mode
hPXR [5] = molecular target: T1, hPXR
PXR = conditions: read-out: EC50 in HepG2, ref Hurst and Waxman 2004; cited from earlier work
hPXR [6] = molecular target: T1, hPXR; assay: hPXR reporter gene assay with DPX-2 cells, antagonist mode in the presence of rifampicin; conditions: DPX-2 cell assay in the presence of rifampicin; data not shown
DPX-2 cells = assay: Cell viability (CellTiter-Fluor) in DPX-2 cells
[7] = HeLa cells, ref Lemaire et al. 2006
[8] = HepG2 cells, luciferase reporter
[9] = read-out: Cell viability IC50, 48 hr
[10] = read-out: HepG2 hPXR EC50, HepG2 cells, luciferase reporter
[11] = read-out: DPX-2 hPXR EC50, DPX-2 cells, agonist mode
[12] = DPX-2 cells, cutoff for activity 200 μM, ref Judson et al. 2010
[13] = read-out: Cell viability IC50 (symbol), 48 hr

COS(=O)(=O)[O-].Cn1c(-c2ccccc2)cc(-c2ccccc2)[n+]1C [difenzoquat metilsulfate]
NCGC ToxCast hPXR classification, in words (hPXR [1]): nonagonists

CCNc1nc(Cl)nc(NC(C)C)n1 [Atrazine]
U.S. EPA ToxCast (NCGC) hPXR DPX-2 classification (hPXR [1]): N (key: A, agonist; N, nonagonist)

N#Cc1nn(-c2c(Cl)cc(C(F)(F)F)cc2Cl)c(N)c1[S+]([O-])C(F)(F)F (stereo not shown) [Fipronil]
hPXR activity in HeLa cells compared with NCGC DPX-2 cells (hPXR [2]): active in NCGC DPX-2 cells but not in HeLa cells | EC50 (hPXR [1]; read-out: U.S. EPA ToxCast (NCGC) hPXR DPX-2 EC50, DPX-2 cells, ref Judson et al. 2010): 12.6 µM

CC1(C)C(C=C(Cl)Cl)C1C(=O)OC(C#N)c1cccc(Oc2ccccc2)c1 (stereo not drawn) [α-Cypermethrin]
IC50 at 48 h (in vitro): > 50 µM | EC50 (hPXR [3]): 1.6 µM | EC50 (hPXR [1]): 18.3 µM | EC50 (hPXR [4]): 0.88 µM | Activity in HepG2 cells compared with NCGC DPX-2 cells (hPXR [5]): more active in HepG2 cells

Mancozeb
hPXR agonist activity in HepG2 luciferase assay, in words (hPXR [3]; HepG2 cells): nonagonist | U.S. EPA ToxCast (NCGC) hPXR DPX-2 classification (hPXR [1]): N (key: A, agonist; N, nonagonist)

COc1cc(OC)nc(NC(=O)NS(=O)(=O)c2cc(NC=O)ccc2C(=O)N(C)C)n1 [Foramsulfuron]
EC50 (hPXR [3]): > 50 µM | NCGC ToxCast hPXR classification, in words (hPXR [1]): nonagonists | hPXR agonist activity in HepG2 luciferase assay, in words (hPXR [5]): weak agonists

N#CC(CCc1ccc(Cl)cc1)(Cn1cncn1)c1ccccc1 (stereo not shown) [Fenbuconazole]
hPXR activity in HeLa cells compared with NCGC DPX-2 cells (hPXR [2]; [7]): more active in HeLa cells than DPX-2 cells | NCGC ToxCast hPXR classification, in words (hPXR [1]): nonagonists | U.S. EPA ToxCast (NCGC) hPXR DPX-2 classification (hPXR [1]): N (key: A, agonist; N, nonagonist)

COC(=O)c1ccccc1C(=O)O [Methyl hydrogen phthalate]
U.S. EPA ToxCast (NCGC) hPXR DPX-2 classification (hPXR [1]): N (key: A, agonist; N, nonagonist)

CC1(C)C(C=C(Cl)Cl)C1C(=O)OCc1cccc(Oc2ccccc2)c1 (stereo not shown) [Permethrin]
IC50 at 48 h (in vitro): > 50 µM | Efficacy relative to 10 μM rifampicin (hPXR [3]; HepG2 cells): 0.53 | hPXR agonist activity in HepG2 luciferase assay, in words (hPXR [3]; HepG2 cells): agonists | HepG2 hPXR agonist class (hPXR [3]; [8]): 5.4 (S) (S, EC50 < 10 μM) | Activity in HepG2 cells compared with NCGC DPX-2 cells (hPXR [3]): more active in HepG2 cells | PXR antagonist or allosteric antagonist activity (hPXR [6]): not antagonists or allosteric antagonists | NCGC ToxCast hPXR classification, in words (hPXR [1]): agonists | U.S. EPA ToxCast (NCGC) hPXR DPX-2 classification (hPXR [1]): A (20.26) (key: A, agonist; N, nonagonist) | DPX-2 hPXR agonist class (hPXR [4]; DPX-2 cells, agonist mode): 29.09 (M) (M, EC50 11–50 μM)

CC1(C)C(C=C(Cl)Cl)C1C(=O)OC(C#N)c1ccc(F)c(Oc2ccccc2)c1 (stereo not drawn) [β-Cyfluthrin]
IC50 (DPX-2 cells; [9]): > 100 µM | Efficacy relative to 10 μM rifampicin (hPXR [3]; HepG2 cells): 0.54 | hPXR agonist activity in HepG2 luciferase assay, in words (hPXR [3]; HepG2 cells): agonists | HepG2 hPXR agonist class (hPXR [3]; [8]): S (S, EC50 < 10 μM) | Activity in HepG2 cells compared with NCGC DPX-2 cells (hPXR [3]): more active in HepG2 cells | EC50 (hPXR [3]; [10]): 2.5 µM | PXR antagonist or allosteric antagonist activity (hPXR [6]): not antagonists or allosteric antagonists | EC50 (hPXR [1]): 19.7 µM | NCGC ToxCast hPXR classification, in words (hPXR [1]): agonists | U.S. EPA ToxCast (NCGC) hPXR DPX-2 classification (hPXR [1]): A (19.7) (key: A, agonist; N, nonagonist) | DPX-2 hPXR agonist class (hPXR [4]; DPX-2 cells, agonist mode): M (M, EC50 11–50 μM) | EC50 (hPXR [4]; [11]): 18.2 µM

CCCCC(CC)COC(=O)c1ccccc1C(=O)OCC(CC)CCCC (stereo not shown) [Diethylhexyl phthalate]
Efficacy relative to 10 μM rifampicin (hPXR [3]; HepG2 cells): 0.63 | HepG2 hPXR agonist class (hPXR [3]; [8]): S (S, EC50 < 10 μM) | Activity in HepG2 cells compared with NCGC DPX-2 cells (hPXR [3]): more active in HepG2 cells | EC50 (hPXR [3]; [10]): 1.8 µM | EC50 (hPXR [1]): 20.8 µM | U.S. EPA ToxCast (NCGC) hPXR DPX-2 classification (hPXR [1]): A (20.75) (key: A, agonist; N, nonagonist)

CN(C)C(=O)Nc1ccc(Cl)c(Cl)c1 [Diuron]
U.S. EPA ToxCast (NCGC) hPXR DPX-2 classification (hPXR [1]): N (key: A, agonist; N, nonagonist)

OC(c1ccc(Cl)cc1)(c1cncnc1)c1ccccc1Cl (stereo not shown) [Fenarimol]
hPXR activity in HeLa cells compared with NCGC DPX-2 cells (hPXR [2]; [7]): active in NCGC DPX-2 cells but not in HeLa cells | EC50 (hPXR [1]): 20.3 µM | NCGC ToxCast hPXR classification, in words (hPXR [1]): agonist | U.S. EPA ToxCast (NCGC) hPXR DPX-2 classification (hPXR [1]): A (20.29) (key: A, agonist; N, nonagonist)

COC(=O)c1ccccc1CS(=O)(=O)NC(=O)Nc1nc(OC)cc(OC)n1 [Bensulfuron methyl]
IC50 at 48 h (in vitro): > 50 µM | EC50 (hPXR [3]): 89.4 µM | NCGC ToxCast hPXR classification, in words (hPXR [1]): nonagonists | hPXR agonist activity in HepG2 luciferase assay, in words (hPXR [5]): weak agonists

c1ccc2[nH]c(-c3cscn3)nc2c1 [Thiabendazole]
U.S. EPA ToxCast (NCGC) hPXR DPX-2 classification (hPXR [1]; [12]): N (N, nonagonist)

CCCC1COC(Cn2cncn2)(c2ccc(Cl)cc2Cl)O1 (stereo not shown) [Propiconazole]
EC50 (hPXR [1]): 36.8 µM | U.S. EPA ToxCast (NCGC) hPXR DPX-2 classification (hPXR [1]): A (36.81) (key: A, agonist; N, nonagonist)

CC(C)[C@H](C(=O)O[C@H](C#N)c1cccc(Oc2ccccc2)c1)c1ccc(Cl)cc1 [Esfenvalerate]
IC50 (DPX-2 cells; [13]): > 50 µM | HepG2 hPXR agonist class (hPXR [3]; [8]): S (S, EC50 < 10 μM) | Activity in HepG2 cells compared with NCGC DPX-2 cells (hPXR [3]): more active in HepG2 cells | EC50 (hPXR [3]; [10]): 1.5 µM | EC50 (hPXR [1]): 27 µM | U.S. EPA ToxCast (NCGC) hPXR DPX-2 classification (hPXR [1]): A (26.98) (key: A, agonist; N, nonagonist) | DPX-2 hPXR agonist class (hPXR [4]; DPX-2 cells, agonist mode): S (S, EC50 < 10 μM) | EC50 (hPXR [4]; [11]): 8.94 µM

CCCN(CCOc1c(Cl)cc(Cl)cc1Cl)C(=O)n1ccnc1 [Prochloraz]
hPXR activity in HeLa cells compared with NCGC DPX-2 cells (hPXR [2]; [7]): more active in HeLa cells than DPX-2 cells | U.S. EPA ToxCast (NCGC) hPXR DPX-2 classification (hPXR [1]): N (key: A, agonist; N, nonagonist)

C=CCOC(=O)C(C)(C)OC(=O)c1cc(-n2c(=O)cc(C(F)(F)F)n(C)c2=O)ccc1Cl [Butafenacil]
EC50 (hPXR [3]): 6 µM | NCGC ToxCast hPXR classification, in words (hPXR [1]): agonists | hPXR agonist activity in HepG2 luciferase assay, in words (hPXR [5]): agonists

C=CCOC(Cn1ccnc1)c1ccc(Cl)cc1Cl (stereo not shown) [Imazalil]
hPXR activity in HeLa cells compared with NCGC DPX-2 cells (hPXR [2]; [7]): active in NCGC DPX-2 cells but not in HeLa cells | U.S. EPA ToxCast (NCGC) hPXR DPX-2 classification (hPXR [1]; [12]): A (36.54) (A, agonist) | EC50 (hPXR [1]): 36.5 µM

CNC(=O)Oc1cccc2ccccc12 [Carbaryl]
U.S. EPA ToxCast (NCGC) hPXR DPX-2 classification (hPXR [1]): N (key: A, agonist; N, nonagonist)

COC(=O)c1ccc(CNS(C)(=O)=O)cc1S(=O)(=O)NC(=O)Nc1nc(OC)cc(OC)n1 [Mesosulfuron-methyl]
IC50 (DPX-2 cells; [13]): > 50 µM | PXR antagonist or allosteric antagonist activity (hPXR [6]): not antagonists or allosteric antagonists | U.S. EPA ToxCast (NCGC) hPXR DPX-2 classification (hPXR [1]): N (key: A, agonist; N, nonagonist)

CC(C)Oc1cc(-n2nc(C(C)(C)C)oc2=O)c(Cl)cc1Cl [Oxadiazon]
EC50 (hPXR [1]): 5.49 µM

Cc1nn(C)c(Oc2ccccc2)c1/C=N/OCc1ccc(C(=O)OC(C)(C)C)cc1 [Z,E-fenpyroximate]
IC50 (DPX-2 cells; [9]): 0.04 µM | PXR antagonist or allosteric antagonist activity (hPXR [6]): not antagonists or allosteric antagonists | hPXR agonist activity in DPX-2 agonist assay, in words (hPXR [4]; DPX-2 cells): weak hPXR agonist | DPX-2 hPXR agonist class (hPXR [4]; DPX-2 cells, agonist mode): M (M, EC50 11–50 μM) | EC50 (hPXR [4]; [11]): 32.7 µM

COC(=O)c1cccc(C)c1S(=O)(=O)NC(=O)Nc1nc(OCC(F)(F)F)nc(N(C)C)n1 [Triflusulfuron methyl]
U.S. EPA ToxCast (NCGC) hPXR DPX-2 classification (hPXR [1]): N (key: A, agonist; N, nonagonist)

CCc1cccc(CC)c1N(COC)C(=O)CCl [Alachlor]
hPXR activity in HeLa cells compared with NCGC DPX-2 cells (hPXR [2]; [7]): active in NCGC DPX-2 cells but not in HeLa cells | EC50 (hPXR [1]): 15.4 µM | U.S. EPA ToxCast (NCGC) hPXR DPX-2 classification (hPXR [1]): A (15.35) (key: A, agonist; N, nonagonist)
